Values of other authors in patent publication US20230211112A1, “Method for emergency relief of acute ischemic attacks” (priority 2020, published 2023).

Test system: rats
Conditions: confined space

| Structure (SMILES) | oxygen consumption reduced compared to the control (average, vs air environment, same initial oxygen concentration) [%] | maximum survival time increased (vs air environment control) [%] | oxygen consumption decreased (vs air environment control) [times] | time of maximum animal survival increased (vs air environment control) [times] |
| --- | --- | --- | --- | --- |
| [Ar] [argon] | 27 | 33 |  |  |
| [Xe] [xenon] |  |  | 3.2 | 3.5 |
